Experimental data as given in PubChem BioAssay (NCI).
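Each compound was tested at five concentrations against cells in 96-well plates for 48 hours. GI50: concentration for 50% inhibition of growth. At the TGI there is no net growth.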

Experiments:
Experiment in all cases: NCI-60 cell line screen, 48 h
[1] = tested on: NCI-H226 lung
[2] = tested on: SK-MEL-5 melanoma
[3] = tested on: SNB-19 CNS
[4] = tested on: U251 CNS
[5] = tested on: 786-0 renal
[6] = tested on: CAKI-1 renal
[7] = tested on: HCT-116 colon
[8] = tested on: A498 renal
[9] = tested on: A549 NSCLC
[10] = tested on: SR leukemia

| Compound | GI50 [1] [µM] | TGI [1] [µM] | GI50 [2] [µM] | TGI [2] [µM] | GI50 [3] [µM] | TGI [3] [µM] | GI50 [4] [µM] | TGI [4] [µM] | GI50 [5] [µM] | TGI [5] [µM] | GI50 [6] [µM] | TGI [6] [µM] | GI50 [7] [µM] | TGI [7] [µM] | GI50 [8] [µM] | TGI [8] [µM] | GI50 [9] [µM] | TGI [9] [µM] | TGI [10] [µM] | GI50 [10] [µM] |
| --- | --- | --- | --- | --- | --- | --- | --- | --- | --- | --- | --- | --- | --- | --- | --- | --- | --- | --- | --- | --- |
| C=C1C(=O)O[C@@H]2C1C[C@@H](O)C(=C)CC/C=C(\C)CCC[C@H](C)[C@H]2OC(C)=O (some centres undefined) | 3.37 | 12.8 | 2.76 | 10.8 | 27.1 | > 100 | 5.83 | 23.3 | 4.84 | 16.3 | 4.06 | 14.7 | 1.4 | 3.06 | 15.3 | 29.4 | 22.9 | 48.8 |  |  |
| CCOC(=O)C(C)(C)C(O)C(C)C (centres undefined) |  |  |  | > 100 |  | > 100 |  | > 100 |  | > 100 |  | > 100 |  | > 100 |  | > 100 |  | > 100 | > 100 |  |
| C=C(C)[C@@H]1CC[C@]2(CO)CC[C@]3(C)[C@H](CC[C@@H]4[C@@]5(C)CCC(NCCc6ccc(O)cc6)C(C)(C)[C@@H]5CC[C@]43C)[C@@H]12 (some centres undefined) |  |  | 1.47 | 2.8 |  |  | 1.56 | 2.98 | 1.66 | 3.26 | 1.54 | 2.88 | 1.39 | 2.84 | 1.32 | 2.69 | 1.48 | 3 | 1.07 | 0.334 |
| CCOc1ccccc1NC(=O)CCc1n[nH]c(=S)o1 |  | > 100 |  | > 100 |  | > 100 |  | > 100 |  | > 100 |  | > 100 |  | > 100 |  |  |  | > 100 | > 100 |  |
| COc1ccc2c(c1OC)OCC(CN(C)C)C2=O (centres undefined) |  | > 67.4 |  | 31.6 |  | > 100 |  | 34.1 |  | 25.9 |  | 11.3 |  | 31.4 |  |  |  | > 63.9 | 10.5 |  |
| O=S(O)CCCSSc1ccccc1 |  |  |  | > 100 |  | > 100 |  | > 100 |  | > 100 |  | > 100 |  | > 100 |  | > 100 |  | > 100 |  |  |
| O=C(NC1C2CC3CC(C2)CC1C3)c1cc(/C=C/c2ccccc2)[nH]c(=S)n1 (centres undefined) |  |  |  | > 100 |  | > 100 |  | > 100 |  | > 100 |  | > 100 |  | > 100 |  | > 100 |  | > 100 | > 100 |  |
| CCCCN(CCCC)CCCn1c(=O)c2c3ccccc3n(C)c2n2nnc(-c3ccccc3)c12 | 57 | > 100 | 31.9 | > 100 | > 100 | > 100 | 32.9 | > 100 | 39 | > 100 | 49.8 | > 100 | 18.4 | > 100 | 42.7 | > 100 | 43.9 | > 100 |  |  |
| CCOC(=O)[C@@H](C)C[C@H](Cc1ccccc1)NC(=O)c1csc([C@@H](C[C@H](C(C)C)N(C)C(=O)[C@H](CC)NC(=O)[C@H]2CCCCN2C)OC(C)=O)n1 | 0.00335 | 0.102 | < 0.00167 | 0.0432 | 0.00199 | > 16.7 | 0.0031 | > 16.7 | 0.00387 | > 16.7 | < 0.00167 | > 16.7 | < 0.00167 | 1.68 |  |  | 0.00415 | > 16.7 | > 16.7 | < 0.00167 |
| OCC1OC(n2cnc3c(Cl)nc(Cl)cc32)C(O)C1O (centres undefined) |  |  |  |  | > 100 | > 100 |  |  | > 100 | > 100 | > 100 | > 100 | > 100 | > 100 |  |  | > 100 | > 100 |  |  |
